Data on seven compounds can be found in patent publication US10105357B2, “Indication of antibiotic drugs for preparation of cancer inhibition pharmaceutical composition” (LAUNX BIOMEDICAL CO., LTD., priority 2014, dated 2018).

The subject of assay [1] is HI650 (Lung Adenocarcinoma). Kind of assay: Cell viability analysis, lung cancer HI650. It is filed as cell-based, human. Particulars: Homo sapiens.
Assay [2] deals with A549 (Lung Adenocarcinoma). The assay can be described thus: Cell viability analysis, lung cancer A549. It is filed as cell-based, human. To be noted: Homo sapiens.
Assay [3] has as its system AGS (Gastric Adenocarcinoma). Kind of assay: Cell viability analysis, gastric cancer AGS. It is filed as cell-based, human. Particulars: Homo sapiens.
In assay [4] the test system is MKN-45 (Gastric Adenocarcinoma). The assay can be described thus: Cell viability analysis, gastric cancer MKN-45. It is filed as cell-based, human. To be noted: Homo sapiens.
Assay [5] has as its system HepG2 (Hepatocellular Carcinoma). Kind of assay: Cell viability analysis, hepatic cancer HepG2. It is filed as cell-based, human. Particulars: Homo sapiens.
In assay [6] the test system is LoVo (Colorectal Adenocarcinoma). Kind of assay: Cell viability analysis, colon cancer LoVo. To be noted: Homo sapiens, LoVo. It is filed as cell-based, human.
Assay [7] deals with A375 (Amelanotic Melanoma). The assay can be described thus: Cell viability analysis, skin cancer A375. It is filed as cell-based, human. Particulars: Homo sapiens.
The test system of assay [8] is HeLa (Cervix Adenocarcinoma). Kind of assay: Cell viability analysis, cervical cancer HeLa. Format: cell-based, human. Particulars: Homo sapiens, HeLa.
Assay [9] deals with PC3 (p53−) (Prostate Adenocarcinoma). Kind of assay: Cell viability analysis, prostate cancer PC3. It is filed as cell-based, human. To be noted: Homo sapiens.
Assay [10] has as its system TSGH-8301 (Urinary Bladder Carcinoma). Kind of assay: Cell viability analysis, bladder cancer TSGH-8301. It is filed as cell-based, human. To be noted: Homo sapiens.
The subject of assay [11] is MCF7 (Mammary Gland, Adenocarcinoma). Kind of assay: Cell viability analysis, breast cancer MCF7. To be noted: Homo sapiens. It is filed as cell-based, human.
Assay [12] concerns HL-60 (Acute Promyelocytic Leukemia). The assay can be described thus: Cell viability analysis, leukemia HL-60. Format: cell-based, human. To be noted: Homo sapiens.
Assay [13] relates to HCT116 (p53+) (Colorectal Carcinoma). Kind of assay: cells. To be noted: Homo sapiens, HCT-116, 72 h, read-out: cell viability (survival rate), HCT116.
Setting [14] is: NCI-H1650, 72 h, read-out: cell viability (survival rate), H1650, drug 10 μM, 72 hours, WST-1, OD450 nm.
Where [15] appears, read: A549, 72 h, read-out: cell viability (survival rate), A549, drug 10 μM, 72 hours, WST-1, OD450 nm.
Setting [16] is: 72 h, read-out: cell viability (survival rate), AGS, drug 10 μM, 72 hours, WST-1, OD450 nm.
The mark [17] stands for this setting: MKN-45, 72 h, read-out: cell viability (survival rate), MKN-45, drug 10 μM, 72 hours, WST-1, OD450 nm.
The mark [18] stands for this setting: HepG2, 72 h, read-out: cell viability (survival rate), HepG2, drug 10 μM, 72 hours, WST-1, OD450 nm.
Where [19] appears, read: 72 h, read-out: cell viability (survival rate), LoVo, drug 10 μM, 72 hours, WST-1, OD450 nm.
The mark [20] stands for this setting: A-375, 72 h, read-out: cell viability (survival rate), A375, drug 10 μM, 72 hours, WST-1, OD450 nm.
The mark [21] stands for this setting: 72 h, read-out: cell viability (survival rate), HeLa, drug 10 μM, 72 hours, WST-1, OD450 nm.
Setting [22] is: 72 h, read-out: cell viability (survival rate), PC3, drug 10 μM, 72 hours, WST-1, OD450 nm.
[23] abbreviates: 72 h, read-out: cell viability (survival rate), TSGH, drug 10 μM, 72 hours, WST-1, OD450 nm.
The mark [24] stands for this setting: MCF7, 72 h, read-out: cell viability (survival rate), MCF7, drug 10 μM, 72 hours, WST-1, OD450 nm.
Setting [25] is: HL-60, 72 h, read-out: cell viability (survival rate), HL-60, drug 10 μM, 72 hours, WST-1, OD450 nm.
[26] abbreviates: NCI-H1650, 72 h, read-out: cell viability (survival rate), H1650.
Setting [27] is: A549, 72 h, read-out: cell viability (survival rate), A549.
Where [28] appears, read: 72 h, read-out: cell viability (survival rate), AGS.
The mark [29] stands for this setting: MKN-45, 72 h, read-out: cell viability (survival rate), MKN-45.
Setting [30] is: HepG2, 72 h, read-out: cell viability (survival rate), HepG2.
[31] abbreviates: 72 h, read-out: cell viability (survival rate), LoVo.
Where [32] appears, read: A-375, 72 h, read-out: cell viability (survival rate), A375.
[33] abbreviates: 72 h, read-out: cell viability (survival rate), HeLa.
Where [34] appears, read: 72 h, read-out: cell viability (survival rate), PC3.
The mark [35] stands for this setting: 72 h, read-out: cell viability (survival rate), TSGH.
Where [36] appears, read: MCF7, 72 h, read-out: cell viability (survival rate), MCF7.
[37] abbreviates: HL-60, 72 h, read-out: cell viability (survival rate), HL-60.
Setting [38] is: NCI-H1650, drug 10 μM, 72 hours, WST-1, OD450 nm, read-out: cell viability (survival rate), H1650.
[39] abbreviates: A549, drug 10 μM, 72 hours, WST-1, OD450 nm, read-out: cell viability (survival rate), A549.
The mark [40] stands for this setting: drug 10 μM, 72 hours, WST-1, OD450 nm, read-out: cell viability (survival rate), AGS.
The mark [41] stands for this setting: MKN-45, drug 10 μM, 72 hours, WST-1, OD450 nm, read-out: cell viability (survival rate), MKN-45.
Where [42] appears, read: HepG2, drug 10 μM, 72 hours, WST-1, OD450 nm, read-out: cell viability (survival rate), HepG2.
Setting [43] is: drug 10 μM, 72 hours, WST-1, OD450 nm, read-out: cell viability (survival rate), LoVo.
The mark [44] stands for this setting: A-375, drug 10 μM, 72 hours, WST-1, OD450 nm, read-out: cell viability (survival rate), A375.
Where [45] appears, read: drug 10 μM, 72 hours, WST-1, OD450 nm, read-out: cell viability (survival rate), HeLa.
[46] abbreviates: drug 10 μM, 72 hours, WST-1, OD450 nm, read-out: cell viability (survival rate), PC3.
Setting [47] is: drug 10 μM, 72 hours, WST-1, OD450 nm, read-out: cell viability (survival rate), TSGH.
The mark [48] stands for this setting: MCF7, drug 10 μM, 72 hours, WST-1, OD450 nm, read-out: cell viability (survival rate), MCF7.
[49] abbreviates: HL-60, drug 10 μM, 72 hours, WST-1, OD450 nm, read-out: cell viability (survival rate), HL-60.

Where two headings read alike, the source gives them in different places.

A word on the viability: it is a read-out of living cells in per cent, often relative to untreated cells. With `CN(C)[C@@H]1C(O)=C(C(=O)NCN2CCCC2)C(=O)[C@@]2(O)C(O)=C3C(=O)c4c(O)cccc4[C@@](C)(O)[C@H]3C[C@@H]12` [Rolitetracycline], the viability at 10 µM in [1] (setting [14]) is 113%; in assay [2] (setting [15]), 112%; in [3] (setting [16]) it was 61.1%; in assay [4] (setting [17]), 95.7%; in [5] (setting [18]), 71.2%; in assay [6] (setting [19]), 86.1%. For the same compound, the viability at 10 µM in [7] (setting [20]) came to 82.5%; in assay [8] (setting [21]), 53.9%; in assay [9] (setting [22]), 105%; in assay [10] (setting [23]) it was 54.3%; in assay [11] (setting [24]), 88.8%; in assay [12] (setting [25]), 102%. Moreover, the viability at 10 µM in assay [13] stood at 67.7%.

As for `CCCCCCCCCCCCCCCC[n+]1ccccc1` [Cetylpyridinium Chloride], the viability at 10 µM in assay [1] (setting [26]) worked out at 48.7%; in assay [2] (setting [27]), 29.2%; in [3] (setting [28]), 33.4%; in [4] (setting [29]), 47.4%; in assay [5] (setting [30]), 60.9%; in assay [6] (setting [31]), 50.7%. Further, the viability at 10 µM worked out at 35.6% in assay [7] (setting [32]); 37.1% in assay [8] (setting [33]); 37.1% in assay [9] (setting [34]); 37.2% in assay [10] (setting [35]); 40.9% in assay [11] (setting [36]); 30.8% in assay [12] (setting [37]). Besides, in [13], the viability at 10 µM was determined as 33.6%.

For the compound `OC[C@H]1O[C@H](O[C@]2(CCl)O[C@H](CCl)[C@@H](O)[C@@H]2O)[C@H](O)[C@@H](O)[C@H]1Cl` [Sucralose], the viability at 10 µM in assay [1] (NCI-H1650, 72 h, drug 10 μM, 72 hours, WST-1, OD450 nm, read-out: cell viability (survival rate), H1650) was 72%; in assay [2] (A549, 72 h, drug 10 μM, 72 hours, WST-1, OD450 nm, read-out: cell viability (survival rate), A549) it was 74.3%; in [3] (72 h, drug 10 μM, 72 hours, WST-1, OD450 nm, read-out: cell viability (survival rate), AGS), 66.7%; in assay [4] (MKN-45, 72 h, drug 10 μM, 72 hours, WST-1, OD450 nm, read-out: cell viability (survival rate), MKN-45), 94.1%; in [5] (HepG2, 72 h, drug 10 μM, 72 hours, WST-1, OD450 nm, read-out: cell viability (survival rate), HepG2), 95.3%; in assay [6] (setting [19]), 73.8%. The viability at 10 µM in assay [7] (A-375, 72 h, drug 10 μM, 72 hours, WST-1, OD450 nm, read-out: cell viability (survival rate), A375) was found to be 83.3%; in [8] (72 h, drug 10 μM, 72 hours, WST-1, OD450 nm, read-out: cell viability (survival rate), HeLa), 77.9%; in assay [9] (72 h, drug 10 μM, 72 hours, WST-1, OD450 nm, read-out: cell viability (survival rate), PC3), 78.8%; in assay [10] (72 h, drug 10 μM, 72 hours, WST-1, OD450 nm, read-out: cell viability (survival rate), TSGH) it was 94.3%; in [11] (MCF7, 72 h, drug 10 μM, 72 hours, WST-1, OD450 nm, read-out: cell viability (survival rate), MCF7), 71.2%; in [12] (HL-60, 72 h, drug 10 μM, 72 hours, WST-1, OD450 nm, read-out: cell viability (survival rate), HL-60), 88.5%. In assay [13], the viability at 10 µM came to 54.8%.

Take `NC(CO)(CO)CO` [Trometamol]: the viability at 10 µM is 95.4% in [1] (setting [14]); 79.5% in assay [2] (setting [15]); 78.1% in [3] (setting [16]); 88.3% in assay [4] (setting [17]); 96.7% in [5] (setting [18]); 68% in assay [6] (setting [19]). For the same compound, the viability at 10 µM in assay [7] (setting [20]) worked out at 126%; in assay [8] (setting [21]) it was 90.9%; in [9] (setting [22]), 97%; in assay [10] (setting [23]), 102%; in assay [11] (setting [24]), 98.8%; in assay [12] (setting [25]), 91.3%. Further, the viability at 10 µM in assay [13] is 90.4%.

With `CCC1(C)CC(=O)NC(=O)C1` [Bemegride], the viability at 10 µM was 69.9% in [1] (setting [38]); 60.2% in assay [2] (setting [39]); 62% in assay [3] (setting [40]); 99.7% in assay [4] (setting [41]); 90.7% in [5] (setting [42]); 88.5% in assay [6] (setting [43]). In addition, the viability at 10 µM in assay [7] (setting [44]) was 62.7%; in [8] (setting [45]), 62.7%; in [9] (setting [46]) it was 113%; in [10] (setting [47]) it was 93.3%; in assay [11] (setting [48]), 123%; in [12] (setting [49]), 125%. Further, in assay [13], the viability at 10 µM was found to be 47.7%.

Regarding `O=C(O)c1ccccc1` [Benzoic acid], the viability at 10 µM in [1] (setting [38]) turned out to be 57.2%; in [2] (setting [39]), 36.7%; in assay [3] (setting [40]), 53.1%; in assay [4] (setting [41]), 43.4%; in assay [5] (setting [42]), 79.1%; in assay [6] (setting [43]), 60.5%. Also, the viability at 10 µM in [7] (setting [44]) is 37%; in assay [8] (setting [45]) it was 59.6%; in assay [9] (setting [46]), 36.8%; in assay [10] (setting [47]) it was 39.5%; in assay [11] (setting [48]), 31.4%; in assay [12] (setting [49]) it was 111%. In assay [13], the viability at 10 µM was 41.9%.

For the compound `C[N+](C)(C)CCO.[Cl-]` [Choline Chloride], the viability at 10 µM in assay [1] (setting [26]) amounted to 90.2%; in [2] (setting [27]), 96%; in assay [3] (setting [28]) it was 97.1%; in assay [4] (setting [29]), 99.3%; in [5] (setting [30]), 103%; in [6] (setting [31]) it was 76.7%. For the same compound, the viability at 10 µM in assay [7] (setting [32]) turned out to be 132%; in assay [8] (setting [33]), 103%; in [9] (setting [34]), 106%; in assay [10] (setting [35]) it was 129%; in [11] (setting [36]), 108%; in [12] (setting [37]), 91.1%. The viability at 10 µM in assay [13] turned out to be 104%.
